Measured values from ChEMBL document CHEMBL3137667, “[Drug-induced liver injury; fourteenth updated edition of the bibliographic database of liver injuries and related drugs]” (Gastroenterol Clin Biol, 2004).

Key:
[1] = Highest frequency of moderate liver toxicity observed during clinical trials, expressed as a percentage. [column '% BIOL' in source]; details: human
[2] = Highest frequency of acute liver toxicity observed during clinical trials, expressed as a percentage. [column '% AIGUE' in source]; details: human
[3] = Times to onset, minimal and maximal, observed in the indexed observations. [column 'DELAI' in source]; details: human
[4] = human, serum
[5] = human, serum; remark: listed apart in the source
[6] = human
[7] = human; remark: listed apart in the source
[8] = human; remark: listed apart in the source
[9] = human, serum, 4383 h
[10] = human; remark: listed apart in the source
[11] = human; remark: listed apart in the source
[12] = human; remark: listed apart in the source
[13] = human; remark: listed apart in the source
[14] = human; remark: listed apart in the source
[15] = human; remark: listed apart in the source
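For Hepatotoxicity (association with vascular disease) in this document: count of indexed literature references reporting vascular liver injury in humans, e.g. peliosis hepatitis, hepatic veno-occlusive disease or Budd-Chiari syndrome.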
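For Hepatotoxicity (benign tumour) in this document: value is a count of indexed literature references citing a benign tumour confirmed by histopathology.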
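For Hepatotoxicity (choleostasis) in this document: human cholestatic liver injury, shown by histopathology or by peak ALT or AST elevation over alkaline phosphatase ratio below 2, value counts indexed literature reports.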
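For Hepatotoxicity (chronic liver disease) in this document: chronic liver injury confirmed by histopathology or persistently raised serum aminotransferase activity beyond 6 months, value given as the count of indexed literature references.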
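For Hepatotoxicity (cirrhosis) in this document: value is a count of indexed literature references reporting cirrhosis confirmed by histopathology.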
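For Hepatotoxicity (cytolytic) in this document: human cytolytic liver injury, shown by histopathology or by a ratio above 5 of peak ALT or AST elevation to alkaline phosphatase elevation, value counts indexed references.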
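For Hepatotoxicity (granulomatous hepatitis) in this document: value is a count of indexed literature references reporting granulomatous liver disease confirmed by histopathology.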
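For Hepatotoxicity (malignant tumour) in this document: malignant tumour confirmed by histopathology, value gives the count of indexed literature references reporting it.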
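For Hepatotoxicity (severe hepatitis) in this document: human clinical data: severe hepatitis, meaning potentially life-threatening liver failure or clinically observed cases, the value counts how many indexed literature references report it.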
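For Hepatotoxicity (steatosis) in this document: steatosis confirmed by histopathology, value is the count of indexed references.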

## CN(c1nccc(=O)[nH]1)C1CCN(c2nc3ccccc3n2Cc2ccc(F)cc2)CC1 [MIZOLASTINE]
[1]
  Hepatotoxicity (moderate): 0%
[2]
  Hepatotoxicity (acute): 0%
[3]
  Hepatotoxicity (time to onset): 2 months
[4]
  Hepatotoxicity (moderate): 0
[5]
  Hepatotoxicity (acute): 2
[6]
  Hepatotoxicity (cytolytic): 2
[7]
  Hepatotoxicity (choleostasis): 0
[8]
  Hepatotoxicity (severe hepatitis): 0
[9]
  Hepatotoxicity (chronic liver disease): 0
[10]
  Hepatotoxicity (cirrhosis): 0
[11]
  Hepatotoxicity (granulomatous hepatitis): 0
[12]
  Hepatotoxicity (association with vascular disease): 0
[13]
  Hepatotoxicity (steatosis): 0
[14]
  Hepatotoxicity (malignant tumour): 0
[15]
  Hepatotoxicity (benign tumour): 0

## O=C(NCCN1CCOCC1)c1ccc(Cl)cc1 [MOCLOBEMIDE]
[1]
  Hepatotoxicity (moderate): 0%
[2]
  Hepatotoxicity (acute): 0%
[3]
  Hepatotoxicity (time to onset): 1 week - 9 days
[4]
  Hepatotoxicity (moderate): 1
[5]
  Hepatotoxicity (acute): 1
[6]
  Hepatotoxicity (cytolytic): 0
[7]
  Hepatotoxicity (choleostasis): 1
[8]
  Hepatotoxicity (severe hepatitis): 1
[9]
  Hepatotoxicity (chronic liver disease): 0
[10]
  Hepatotoxicity (cirrhosis): 0
[11]
  Hepatotoxicity (granulomatous hepatitis): 0
[12]
  Hepatotoxicity (association with vascular disease): 0
[13]
  Hepatotoxicity (steatosis): 0
[14]
  Hepatotoxicity (malignant tumour): 0
[15]
  Hepatotoxicity (benign tumour): 0

## CCCCC1C(=O)NN(c2ccccc2)C1=O (stereo not given) [MOFEBUTAZONE]
[1]
  Hepatotoxicity (moderate): 0%
[2]
  Hepatotoxicity (acute): 0%
[3]
  Hepatotoxicity (time to onset): 2 years
[4]
  Hepatotoxicity (moderate): 0
[5]
  Hepatotoxicity (acute): 1
[6]
  Hepatotoxicity (cytolytic): 1
[7]
  Hepatotoxicity (choleostasis): 0
[8]
  Hepatotoxicity (severe hepatitis): 0
[9]
  Hepatotoxicity (chronic liver disease): 0
[10]
  Hepatotoxicity (cirrhosis): 1
[11]
  Hepatotoxicity (granulomatous hepatitis): 0
[12]
  Hepatotoxicity (association with vascular disease): 0
[13]
  Hepatotoxicity (steatosis): 0
[14]
  Hepatotoxicity (malignant tumour): 0
[15]
  Hepatotoxicity (benign tumour): 0

## CCOC(=O)Nc1ccc2c(c1)N(C(=O)CCN1CCOCC1)c1ccccc1S2 [MORICIZINE]
[1]
  Hepatotoxicity (moderate): 1.2%
[2]
  Hepatotoxicity (acute): 0%
[3]
  Hepatotoxicity (time to onset): 6 days
[4]
  Hepatotoxicity (moderate): 4
[5]
  Hepatotoxicity (acute): 0
[6]
  Hepatotoxicity (cytolytic): 0
[7]
  Hepatotoxicity (choleostasis): 0
[8]
  Hepatotoxicity (severe hepatitis): 0
[9]
  Hepatotoxicity (chronic liver disease): 0
[10]
  Hepatotoxicity (cirrhosis): 0
[11]
  Hepatotoxicity (granulomatous hepatitis): 0
[12]
  Hepatotoxicity (association with vascular disease): 0
[13]
  Hepatotoxicity (steatosis): 0
[14]
  Hepatotoxicity (malignant tumour): 0
[15]
  Hepatotoxicity (benign tumour): 0

## O=C(NCN1CCOCC1)c1cnccn1 [MORINAMIDE]
[1]
  Hepatotoxicity (moderate): 1.8%
[2]
  Hepatotoxicity (acute): 0.5%
[3]
  Hepatotoxicity (time to onset): 4 months
[4]
  Hepatotoxicity (moderate): 2
[5]
  Hepatotoxicity (acute): 2
[6]
  Hepatotoxicity (cytolytic): 2
[7]
  Hepatotoxicity (choleostasis): 0
[8]
  Hepatotoxicity (severe hepatitis): 1
[9]
  Hepatotoxicity (chronic liver disease): 0
[10]
  Hepatotoxicity (cirrhosis): 0
[11]
  Hepatotoxicity (granulomatous hepatitis): 0
[12]
  Hepatotoxicity (association with vascular disease): 0
[13]
  Hepatotoxicity (steatosis): 0
[14]
  Hepatotoxicity (malignant tumour): 0
[15]
  Hepatotoxicity (benign tumour): 0

## COc1nc(C)nc(Cl)c1N=C1NCCN1 [MOXONIDINE]
[1]; Liver
  Hepatotoxicity (moderate): 0%
[2]; Liver
  Hepatotoxicity (acute): 0%
[3]
  Hepatotoxicity (time to onset): 9 months
[4]
  Hepatotoxicity (moderate): 0
[5]
  Hepatotoxicity (acute): 1
[6]
  Hepatotoxicity (cytolytic): 1
[7]
  Hepatotoxicity (choleostasis): 1
[8]; Liver
  Hepatotoxicity (severe hepatitis): 1
[9]
  Hepatotoxicity (chronic liver disease): 0
[10]
  Hepatotoxicity (cirrhosis): 0
[11]
  Hepatotoxicity (granulomatous hepatitis): 0
[12]
  Hepatotoxicity (association with vascular disease): 0
[13]
  Hepatotoxicity (steatosis): 0
[14]
  Hepatotoxicity (malignant tumour): 0
[15]
  Hepatotoxicity (benign tumour): 0

## COc1c(C)c2c(c(O)c1C/C=C(\C)CCC(=O)OCCN1CCOCC1)C(=O)OC2 [MYCOPHENOLATE MOFETIL]
[1]
  Hepatotoxicity (moderate): 33.3%
[2]
  Hepatotoxicity (acute): 0%
[3]
  Hepatotoxicity (time to onset): 2 weeks
[4]
  Hepatotoxicity (moderate): 3
[5]
  Hepatotoxicity (acute): 1
[6]
  Hepatotoxicity (cytolytic): 1
[7]
  Hepatotoxicity (choleostasis): 0
[8]
  Hepatotoxicity (severe hepatitis): 0
[9]
  Hepatotoxicity (chronic liver disease): 0
[10]
  Hepatotoxicity (cirrhosis): 0
[11]
  Hepatotoxicity (granulomatous hepatitis): 0
[12]
  Hepatotoxicity (association with vascular disease): 0
[13]
  Hepatotoxicity (steatosis): 0
[14]
  Hepatotoxicity (malignant tumour): 0
[15]
  Hepatotoxicity (benign tumour): 0

## CCN(CC)CCOC(=O)[C@@H](Cc1cccc2ccccc12)C[C@@H]1CCCO1 [NAFTIDROFURYL]
[1]
  Hepatotoxicity (moderate): 0%
[2]
  Hepatotoxicity (acute): 0%
[3]
  Hepatotoxicity (time to onset): 7 weeks - 4.3 months
[4]
  Hepatotoxicity (moderate): 0
[5]
  Hepatotoxicity (acute): 3
[6]
  Hepatotoxicity (cytolytic): 2
[7]
  Hepatotoxicity (choleostasis): 2
[8]
  Hepatotoxicity (severe hepatitis): 0
[9]
  Hepatotoxicity (chronic liver disease): 0
[10]
  Hepatotoxicity (cirrhosis): 0
[11]
  Hepatotoxicity (granulomatous hepatitis): 1
[12]
  Hepatotoxicity (association with vascular disease): 0
[13]
  Hepatotoxicity (steatosis): 0
[14]
  Hepatotoxicity (malignant tumour): 0
[15]
  Hepatotoxicity (benign tumour): 0

## CN1CCOC(c2ccccc2)c2ccccc2C1 (stereo not given) [NEFOPAM]
[1]
  Hepatotoxicity (moderate): 14.3%
[2]
  Hepatotoxicity (acute): 0%
[3]
  Hepatotoxicity (time to onset): 4 weeks
[4]
  Hepatotoxicity (moderate): 1
[5]
  Hepatotoxicity (acute): 0
[6]
  Hepatotoxicity (cytolytic): 0
[7]
  Hepatotoxicity (choleostasis): 0
[8]
  Hepatotoxicity (severe hepatitis): 0
[9]
  Hepatotoxicity (chronic liver disease): 0
[10]
  Hepatotoxicity (cirrhosis): 0
[11]
  Hepatotoxicity (granulomatous hepatitis): 0
[12]
  Hepatotoxicity (association with vascular disease): 0
[13]
  Hepatotoxicity (steatosis): 0
[14]
  Hepatotoxicity (malignant tumour): 0
[15]
  Hepatotoxicity (benign tumour): 0

## O=[N+]([O-])c1cc(Cl)cc(-c2cc(Cl)cc([N+](=O)[O-])c2O)c1O [NICLOFOLAN]
[1]
  Hepatotoxicity (moderate): 0%
[2]
  Hepatotoxicity (acute): 0%
[3]
  Hepatotoxicity (time to onset): 1 week
[4]
  Hepatotoxicity (moderate): 0
[5]
  Hepatotoxicity (acute): 1
[6]
  Hepatotoxicity (cytolytic): 0
[7]
  Hepatotoxicity (choleostasis): 1
[8]
  Hepatotoxicity (severe hepatitis): 0
[9]
  Hepatotoxicity (chronic liver disease): 0
[10]
  Hepatotoxicity (cirrhosis): 0
[11]
  Hepatotoxicity (granulomatous hepatitis): 0
[12]
  Hepatotoxicity (association with vascular disease): 0
[13]
  Hepatotoxicity (steatosis): 0
[14]
  Hepatotoxicity (malignant tumour): 0
[15]
  Hepatotoxicity (benign tumour): 0

## COCCOC(=O)C1=C(C)NC(C)=C(C(=O)OC(C)C)C1c1cccc([N+](=O)[O-])c1 (stereo not given) [NIMODIPINE]
[1]
  Hepatotoxicity (moderate): 2.7%
[2]
  Hepatotoxicity (acute): 0.7%
[3]
  Hepatotoxicity (time to onset): 6 months
[4]
  Hepatotoxicity (moderate): 5
[5]
  Hepatotoxicity (acute): 3
[6]
  Hepatotoxicity (cytolytic): 1
[7]
  Hepatotoxicity (choleostasis): 0
[8]
  Hepatotoxicity (severe hepatitis): 0
[9]
  Hepatotoxicity (chronic liver disease): 0
[10]
  Hepatotoxicity (cirrhosis): 0
[11]
  Hepatotoxicity (granulomatous hepatitis): 0
[12]
  Hepatotoxicity (association with vascular disease): 0
[13]
  Hepatotoxicity (steatosis): 0
[14]
  Hepatotoxicity (malignant tumour): 0
[15]
  Hepatotoxicity (benign tumour): 0

## CNC(=C[N+](=O)[O-])NCCSCc1csc(CN(C)C)n1 [NIZATIDINE]
[1]
  Hepatotoxicity (moderate): 3.5%
[2]
  Hepatotoxicity (acute): 0.2%
[3]
  Hepatotoxicity (time to onset): 2 weeks
[4]
  Hepatotoxicity (moderate): 3
[5]
  Hepatotoxicity (acute): 2
[6]
  Hepatotoxicity (cytolytic): 2
[7]
  Hepatotoxicity (choleostasis): 0
[8]
  Hepatotoxicity (severe hepatitis): 1
[9]
  Hepatotoxicity (chronic liver disease): 0
[10]
  Hepatotoxicity (cirrhosis): 1
[11]
  Hepatotoxicity (granulomatous hepatitis): 0
[12]
  Hepatotoxicity (association with vascular disease): 0
[13]
  Hepatotoxicity (steatosis): 0
[14]
  Hepatotoxicity (malignant tumour): 0
[15]
  Hepatotoxicity (benign tumour): 0

## CC(=O)[C@@]1(O)CC[C@H]2[C@@H]3C=C(C)C4=CC(=O)CC[C@@H]4[C@H]3CC[C@@]21C [NOMEGESTROL]
[1]
  Hepatotoxicity (moderate): 0%
[2]
  Hepatotoxicity (acute): 0%
[3]
  Hepatotoxicity (time to onset): 4 months - 5 months
[4]
  Hepatotoxicity (moderate): 0
[5]
  Hepatotoxicity (acute): 2
[6]
  Hepatotoxicity (cytolytic): 2
[7]
  Hepatotoxicity (choleostasis): 0
[8]
  Hepatotoxicity (severe hepatitis): 2
[9]
  Hepatotoxicity (chronic liver disease): 0
[10]
  Hepatotoxicity (cirrhosis): 0
[11]
  Hepatotoxicity (granulomatous hepatitis): 0
[12]
  Hepatotoxicity (association with vascular disease): 0
[13]
  Hepatotoxicity (steatosis): 0
[14]
  Hepatotoxicity (malignant tumour): 0
[15]
  Hepatotoxicity (benign tumour): 0

## OCCN1CCN(CCCN2c3ccccc3C=Cc3ccccc32)CC1 [OPIPRAMOL]
[1]
  Hepatotoxicity (moderate): 0%
[2]
  Hepatotoxicity (acute): 0%
[3]
  Hepatotoxicity (time to onset): 11 days - 11 weeks
[4]
  Hepatotoxicity (moderate): 0
[5]
  Hepatotoxicity (acute): 2
[6]
  Hepatotoxicity (cytolytic): 2
[7]
  Hepatotoxicity (choleostasis): 0
[8]
  Hepatotoxicity (severe hepatitis): 1
[9]
  Hepatotoxicity (chronic liver disease): 0
[10]
  Hepatotoxicity (cirrhosis): 0
[11]
  Hepatotoxicity (granulomatous hepatitis): 0
[12]
  Hepatotoxicity (association with vascular disease): 0
[13]
  Hepatotoxicity (steatosis): 0
[14]
  Hepatotoxicity (malignant tumour): 0
[15]
  Hepatotoxicity (benign tumour): 0

## CCCCCCCCCCC[C@@H](C[C@@H]1OC(=O)[C@H]1CCCCCC)OC(=O)[C@H](CC(C)C)NC=O [ORLISTAT]
[1]
  Hepatotoxicity (moderate): 0%
[2]
  Hepatotoxicity (acute): 0%
[3]
  Hepatotoxicity (time to onset): 3 weeks - 1.5 months
[4]
  Hepatotoxicity (moderate): 0
[5]
  Hepatotoxicity (acute): 2
[6]
  Hepatotoxicity (cytolytic): 1
[7]
  Hepatotoxicity (choleostasis): 1
[8]
  Hepatotoxicity (severe hepatitis): 1
[9]
  Hepatotoxicity (chronic liver disease): 0
[10]
  Hepatotoxicity (cirrhosis): 0
[11]
  Hepatotoxicity (granulomatous hepatitis): 0
[12]
  Hepatotoxicity (association with vascular disease): 0
[13]
  Hepatotoxicity (steatosis): 0
[14]
  Hepatotoxicity (malignant tumour): 0
[15]
  Hepatotoxicity (benign tumour): 0
